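Protocol summary: plate cells (96-well), add compound at 5 concentrations, incubate 48 h, interpolate endpoints linearly. Here, GI50 denotes the concentration required for 50% inhibition of growth.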 Active and inactive are the calls of the source. Rule as the data show it: active = GI50 up to about 1.1 µM and inactive = higher.
Legend:
Assay in all cases: NCI-60 cell line screen, 48 h
ACHN = system: ACHN
HCT-116 = system: HCT-116
NCI-H460 = system: NCI-H460
OVCAR-4 = system: OVCAR-4
Hs-578T = system: Hs-578T
SF-268 = system: SF-268
OVCAR-5 = system: OVCAR-5
MOLT-4 = system: MOLT-4
MDA-MB-231 = system: MDA-MB-231
UACC-257 = system: UACC-257
CAKI-1 = system: CAKI-1
HCC 2998 = system: HCC 2998
SF-539 = system: SF-539
A498 = system: A498
NCI-H226 = system: NCI-H226
TK-10 = system: TK-10
SK-OV-3 = system: SK-OV-3
SR = system: SR
MDA-N = system: MDA-N
UACC-62 = system: UACC-62

Row | SMILES | GI50 (ACHN) | GI50 (HCT-116) | GI50 (NCI-H460) | GI50 (OVCAR-4) | GI50 (Hs-578T) | GI50 (SF-268) | GI50 (OVCAR-5) | GI50 (MOLT-4) | GI50 (MDA-MB-231) | GI50 (UACC-257) | GI50 (CAKI-1) | GI50 (HCC 2998) | GI50 (SF-539) | GI50 (A498) | GI50 (NCI-H226) | GI50 (TK-10) | GI50 (SK-OV-3) | GI50 (SR) | GI50 (MDA-N) | GI50 (UACC-62)
1 | Cc1n(-c2ccccc2)c2c([n+]1Cc1ccc([N+](=O)[O-])cc1)C(=O)c1ccccc1C2=O | 3.72 µM (inactive) | 2.02 µM (inactive) | 3.78 µM (inactive) | 1.66 µM (inactive) | 1.78 µM (inactive) | 1.75 µM (inactive) | 2.02 µM (inactive) | 0.59 µM (active) | 1.59 µM (inactive) | 1.69 µM (inactive) | 15.7 µM (inactive) | 2.26 µM (inactive) | 1.97 µM (inactive) | 12.2 µM (inactive) | 5.43 µM (inactive) | 7.66 µM (inactive) | 4.3 µM (inactive) | 1.72 µM (inactive) | 1.77 µM (inactive) | 2.03 µM (inactive)
2 | Cc1cc(N(CCOS(C)(=O)=O)CCOS(C)(=O)=O)ccc1/C=N/c1ccc(-c2csc(-c3ccccc3)n2)c(Cl)c1 | 0.575 µM (active) | 12.8 µM (inactive) | 0.0647 µM (active) | 16 µM (inactive) | 18 µM (inactive) | 8.63 µM (inactive) | 17.3 µM (inactive) | 2.43 µM (inactive) | 20.6 µM (inactive) | 20.4 µM (inactive) | 0.179 µM (active) | 2.93 µM (inactive) | 3.94 µM (inactive) | 1.6 µM (inactive) | 9.12 µM (inactive) | 10.5 µM (inactive) | 3.37 µM (inactive) | 1.54 µM (inactive) | 3.78 µM (inactive) | 2.95 µM (inactive)
3 | Cc1cc2cc3c(cc2c(-c2ccc([N+](=O)[O-])cc2)n1)OCO3 | 29.9 µM (inactive) | 36.8 µM (inactive) | 29.7 µM (inactive) | 17.9 µM (inactive) | 23.3 µM (inactive) | 34.6 µM (inactive) | > 100 µM (inactive) | 22.5 µM (inactive) | 18.6 µM (inactive) | 80.2 µM (inactive) | 38.4 µM (inactive) | 74 µM (inactive) | 22.6 µM (inactive) | > 100 µM (inactive) | 24.8 µM (inactive) | 43.9 µM (inactive) | 25.6 µM (inactive) | 27.9 µM (inactive) | 54.2 µM (inactive) | 20.6 µM (inactive)

— ChEMBL document CHEMBL1201862, “PubChem BioAssay data set” (2004)
